Data on 16 molecules can be found in patent US20210070748A1, “INHIBITORS OF BRUTONS TYROSINE KINASE” (Pharmacyclics LLC, priority 2015, published 2021).

Common to all, as to format: biochemical
One assay addresses T1, TEC (Homo sapiens, UniProt P42680).
T1 sequence (P42680 1-631): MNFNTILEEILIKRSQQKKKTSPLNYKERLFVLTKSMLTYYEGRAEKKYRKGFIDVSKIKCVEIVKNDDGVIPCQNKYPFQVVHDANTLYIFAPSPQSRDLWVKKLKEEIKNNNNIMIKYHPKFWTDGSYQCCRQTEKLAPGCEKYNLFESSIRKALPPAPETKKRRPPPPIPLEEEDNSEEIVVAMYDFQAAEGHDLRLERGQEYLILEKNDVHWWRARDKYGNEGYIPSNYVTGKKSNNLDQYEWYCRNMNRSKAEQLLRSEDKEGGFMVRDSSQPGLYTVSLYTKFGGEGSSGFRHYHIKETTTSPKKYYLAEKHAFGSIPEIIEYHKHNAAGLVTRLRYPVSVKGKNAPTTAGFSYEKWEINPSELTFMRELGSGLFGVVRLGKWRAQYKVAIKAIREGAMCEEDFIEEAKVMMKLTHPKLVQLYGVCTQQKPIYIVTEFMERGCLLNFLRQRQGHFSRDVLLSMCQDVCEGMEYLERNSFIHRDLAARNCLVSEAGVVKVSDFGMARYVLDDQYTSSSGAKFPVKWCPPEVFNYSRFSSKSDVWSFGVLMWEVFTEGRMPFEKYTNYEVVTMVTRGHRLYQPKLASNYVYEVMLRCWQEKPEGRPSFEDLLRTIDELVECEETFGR
As to the kind of experiment: Inhibition of a panel of kinases, in vitro HotSpot kinase assay: TEC. As for the experimental part: (§1) The degree of inhibition of a panel of kinases is determined using the in vitro HotSpot kinase assay (purified enzymes, ^33P-ATP, an appropriate substrate and 1 μM ATP).

A further assay concerns the target T2, BTK-WT (Homo sapiens, UniProt Q06187).
T2 construct: purified from insect cells as a full-length construct containing an N-terminal 6X-His tag; His6 (N); made in house; host or cells: insect cells (baculovirus Sf21 in Method B)
As to the kind of experiment: Btk in vitro inhibitory activity (one of Method A TR-FRET, Method B electrophoretic mobility shift, Method C radiometric filter binding). Conditions: read-out: IC50 BTK-WT. For orientation: Mobility shift assays separate free from complexed probe on a gel.

In another assay the target is EGFR (Homo sapiens, UniProt P00533). As to the kind of experiment: Inhibition of a panel of kinases, in vitro HotSpot kinase assay: EGFR. On the procedure:
as §1

In another assay the target is LCK (Homo sapiens, UniProt P06239). As to the kind of experiment: Inhibition of a panel of kinases, in vitro HotSpot kinase assay: LCK. Conditions: read-out: IC50 LCK.
LCK, sequence (P06239 whole entry): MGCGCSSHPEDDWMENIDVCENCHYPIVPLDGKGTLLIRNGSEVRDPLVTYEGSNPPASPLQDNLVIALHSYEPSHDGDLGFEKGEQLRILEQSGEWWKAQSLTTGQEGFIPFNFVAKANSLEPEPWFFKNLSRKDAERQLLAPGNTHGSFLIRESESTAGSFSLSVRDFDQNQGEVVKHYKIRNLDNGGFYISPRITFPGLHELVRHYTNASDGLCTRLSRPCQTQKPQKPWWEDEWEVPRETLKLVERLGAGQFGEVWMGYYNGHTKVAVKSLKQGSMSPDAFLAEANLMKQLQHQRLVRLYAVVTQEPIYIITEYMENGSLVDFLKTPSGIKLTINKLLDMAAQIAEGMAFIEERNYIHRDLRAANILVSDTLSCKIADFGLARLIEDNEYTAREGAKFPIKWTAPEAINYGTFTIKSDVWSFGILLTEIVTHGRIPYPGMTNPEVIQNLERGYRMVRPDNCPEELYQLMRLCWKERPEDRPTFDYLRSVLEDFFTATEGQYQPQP
The target of a further assay is T3, ITK (Homo sapiens, UniProt Q08881).
T3 sequence (Q08881 1-620): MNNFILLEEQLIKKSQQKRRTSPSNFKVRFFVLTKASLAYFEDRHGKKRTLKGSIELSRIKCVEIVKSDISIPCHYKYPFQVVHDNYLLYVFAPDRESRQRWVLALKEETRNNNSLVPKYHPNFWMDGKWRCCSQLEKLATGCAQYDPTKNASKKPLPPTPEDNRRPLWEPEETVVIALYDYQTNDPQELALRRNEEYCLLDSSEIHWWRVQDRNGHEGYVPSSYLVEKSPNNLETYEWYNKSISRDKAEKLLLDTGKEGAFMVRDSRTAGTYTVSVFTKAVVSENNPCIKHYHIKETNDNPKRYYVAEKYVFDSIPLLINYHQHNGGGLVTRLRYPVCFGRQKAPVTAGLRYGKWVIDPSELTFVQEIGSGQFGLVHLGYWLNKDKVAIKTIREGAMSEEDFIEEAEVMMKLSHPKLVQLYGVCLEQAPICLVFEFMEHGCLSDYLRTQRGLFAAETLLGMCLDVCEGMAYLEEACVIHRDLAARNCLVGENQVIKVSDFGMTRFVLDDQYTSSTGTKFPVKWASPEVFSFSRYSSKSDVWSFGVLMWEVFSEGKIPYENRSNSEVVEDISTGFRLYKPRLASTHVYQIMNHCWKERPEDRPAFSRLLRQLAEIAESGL
As to the kind of experiment: Inhibition of a panel of kinases, in vitro HotSpot kinase assay: ITK. As for the experimental part:
as §1

A further assay has as its target SRC (Homo sapiens, UniProt P12931). As to the kind of experiment: Inhibition of a panel of kinases, in vitro HotSpot kinase assay: SRC. Conditions: D-compounds panel data; 1 μM ATP. As for the experimental part: as §1
[1] abbreviates: D-compounds panel data, 1 μM ATP.

pIC50: −log10 of the molar value. Where two headings read alike, the source gives them in different places.

T2 sequence (Q06187 whole entry): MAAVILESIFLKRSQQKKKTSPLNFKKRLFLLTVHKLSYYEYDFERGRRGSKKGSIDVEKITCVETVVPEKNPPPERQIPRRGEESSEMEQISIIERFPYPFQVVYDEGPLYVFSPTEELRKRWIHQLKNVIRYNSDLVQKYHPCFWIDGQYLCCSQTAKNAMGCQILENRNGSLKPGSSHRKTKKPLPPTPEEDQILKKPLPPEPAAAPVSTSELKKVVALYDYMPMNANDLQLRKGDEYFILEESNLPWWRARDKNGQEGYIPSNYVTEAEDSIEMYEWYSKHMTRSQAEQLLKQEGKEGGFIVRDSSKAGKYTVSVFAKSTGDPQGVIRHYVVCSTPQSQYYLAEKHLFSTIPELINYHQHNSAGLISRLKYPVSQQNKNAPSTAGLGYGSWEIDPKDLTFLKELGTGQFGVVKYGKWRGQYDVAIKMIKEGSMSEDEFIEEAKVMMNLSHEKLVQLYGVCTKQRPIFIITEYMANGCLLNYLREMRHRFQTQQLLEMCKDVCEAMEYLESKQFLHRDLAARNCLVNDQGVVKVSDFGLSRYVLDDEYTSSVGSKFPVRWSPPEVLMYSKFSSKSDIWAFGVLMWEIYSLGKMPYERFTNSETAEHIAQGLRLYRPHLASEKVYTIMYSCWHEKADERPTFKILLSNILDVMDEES
EGFR, sequence (P00533 25-1210): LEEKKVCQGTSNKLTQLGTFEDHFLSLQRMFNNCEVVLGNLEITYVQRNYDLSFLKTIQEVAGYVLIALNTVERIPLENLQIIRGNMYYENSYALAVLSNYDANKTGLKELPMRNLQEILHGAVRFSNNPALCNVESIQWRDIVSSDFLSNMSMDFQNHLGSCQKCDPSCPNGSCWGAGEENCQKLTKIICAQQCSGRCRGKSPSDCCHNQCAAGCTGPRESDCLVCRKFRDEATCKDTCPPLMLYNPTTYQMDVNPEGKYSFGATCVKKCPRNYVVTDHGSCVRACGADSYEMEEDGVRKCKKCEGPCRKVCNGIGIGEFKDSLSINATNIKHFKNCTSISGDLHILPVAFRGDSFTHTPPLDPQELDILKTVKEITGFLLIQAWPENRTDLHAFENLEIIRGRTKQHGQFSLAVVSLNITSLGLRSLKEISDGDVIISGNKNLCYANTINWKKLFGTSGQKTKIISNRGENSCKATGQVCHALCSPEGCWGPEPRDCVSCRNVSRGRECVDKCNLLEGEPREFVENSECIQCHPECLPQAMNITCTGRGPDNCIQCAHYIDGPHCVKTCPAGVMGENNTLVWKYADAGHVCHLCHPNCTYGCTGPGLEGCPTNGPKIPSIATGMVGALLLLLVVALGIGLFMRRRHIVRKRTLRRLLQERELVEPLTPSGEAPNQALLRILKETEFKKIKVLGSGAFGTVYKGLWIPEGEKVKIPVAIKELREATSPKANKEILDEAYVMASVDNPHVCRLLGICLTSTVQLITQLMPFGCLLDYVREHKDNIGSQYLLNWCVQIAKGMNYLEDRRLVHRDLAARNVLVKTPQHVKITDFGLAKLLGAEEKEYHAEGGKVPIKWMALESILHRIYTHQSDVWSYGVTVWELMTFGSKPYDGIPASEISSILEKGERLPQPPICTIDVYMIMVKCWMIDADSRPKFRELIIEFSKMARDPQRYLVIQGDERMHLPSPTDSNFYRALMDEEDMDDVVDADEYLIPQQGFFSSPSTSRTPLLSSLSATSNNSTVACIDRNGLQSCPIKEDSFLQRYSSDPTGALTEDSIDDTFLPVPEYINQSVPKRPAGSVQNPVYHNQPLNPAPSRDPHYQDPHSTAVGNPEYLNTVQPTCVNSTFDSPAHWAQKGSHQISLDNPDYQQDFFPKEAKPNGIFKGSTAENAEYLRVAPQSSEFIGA
SRC, sequence (P12931 whole entry): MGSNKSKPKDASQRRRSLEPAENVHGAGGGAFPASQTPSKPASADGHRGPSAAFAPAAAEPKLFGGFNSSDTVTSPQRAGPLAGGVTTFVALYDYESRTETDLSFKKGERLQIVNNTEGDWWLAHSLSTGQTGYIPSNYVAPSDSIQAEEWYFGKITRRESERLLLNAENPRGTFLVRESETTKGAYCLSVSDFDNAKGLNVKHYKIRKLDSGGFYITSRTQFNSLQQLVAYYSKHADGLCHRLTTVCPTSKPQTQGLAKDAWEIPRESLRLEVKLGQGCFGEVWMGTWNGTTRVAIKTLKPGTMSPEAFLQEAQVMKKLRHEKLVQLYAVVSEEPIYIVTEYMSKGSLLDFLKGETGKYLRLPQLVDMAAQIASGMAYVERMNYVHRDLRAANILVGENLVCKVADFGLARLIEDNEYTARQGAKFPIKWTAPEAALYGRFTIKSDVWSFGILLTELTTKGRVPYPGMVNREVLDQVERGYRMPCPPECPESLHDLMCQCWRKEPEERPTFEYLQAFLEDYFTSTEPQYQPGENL

For orientation: pIC50 means the negative decadic logarithm of the IC50, by convention in mol/L. `C=CC(=O)N1CCC[C@@H](Nc2nnc(C(N)=O)c(Nc3ccc4ncccc4c3)n2)C1` [Example E-68, (R)-3-(1-acryloylpiperidin-3-ylamino)-5-(quinolin-6-ylamino)-1,2,4-triazine-6-carboxamide]: the pIC50 against TEC (E compounds, Table 17) is at least 8.00; on BTK-WT (E compounds, Table 17), at least 8.00; on EGFR (E compounds, Table 17) it was at least 8.00; on LCK (E compounds, Table 17) it was 6.00 to 7.00; at ITK (E compounds, Table 17), at least 8.00.

With `C=CC(=O)N1CCC[C@@H](Nc2cnc(C(N)=O)c(Nc3ccc(C4(C)CCN(C5CCCC5)CC4)cc3)n2)[C@H]1C` [Example E-100, 5-((2R,3R)-1-acryloyl-2-methylpiperidin-3-ylamino)-3-(4-(1-cyclopentyl-4-methylpiperidin-4-yl)phenylamino)pyrazine-2-carboxamide], the pIC50 against TEC (E compounds, Table 17) was at least 8.00; on BTK-WT (E compounds, Table 17), at least 8.00; at EGFR (E compounds, Table 17), at least 8.00; at LCK (E compounds, Table 17), 7.00 to 8.00; against ITK (E compounds, Table 17), at least 8.00.

For the molecule `C[C@@H]1[C@H](NC(=O)c2ccc(C3CC3)cc2)CCCN1c1cnc(C(N)=O)c(Nc2ccc(N3CCCCC3)cc2)n1` [Example D-37, 5-[(2R,3R)-3-(4-cyclopropylbenzamido)-2-methylpiperidin-1-yl]-3-{[4-(piperidin-1-yl)phenyl]amino}pyrazine-2-carboxamide], the pIC50 on TEC (setting [1]) was 7.00 to 8.00; at BTK-WT (D-compounds panel data) it was 7.00 to 8.00; at EGFR (setting [1]), 6.00 to 7.00; at LCK (setting [1]), 6.00 to 7.00; against ITK (setting [1]), 5.00 to 6.00; against SRC, 5.00 to 6.00.

Take `C=CC(=O)N1CCC[C@@H](Nc2nnc(C(N)=O)c(Nc3ccc(-n4nccn4)cc3)n2)C1` [Example E-67, (R)-5-(4-(2H-1,2,3-triazol-2-yl)phenylamino)-3-(1-acryloylpiperidin-3-ylamino)-1,2,4-triazine-6-carboxamide]: the pIC50 on TEC (E compounds, Table 17) was at least 8.00; on BTK-WT (E compounds, Table 17) it was at least 8.00; on EGFR (E compounds, Table 17), 7.00 to 8.00; at LCK (E compounds, Table 17) it was 6.00 to 7.00; at ITK (E compounds, Table 17) it was 7.00 to 8.00.

With `C=CC(=O)N[C@@H]1CCCN(c2cnc(C(N)=O)c(Nc3cnn(C)c3)n2)[C@@H]1C` [Example E-98, 5-((2R,3R)-3-acrylamido-2-methylpiperidin-1-yl)-3-(1-methyl-1H-pyrazol-4-ylamino)pyrazine-2-carboxamide], the pIC50 is at least 8.00 at TEC (E compounds, Table 17); at least 8.00 at BTK-WT (E compounds, Table 17); 6.00 to 7.00 at EGFR (E compounds, Table 17); 6.00 to 7.00 against ITK (E compounds, Table 17).

Turning to `C=CC(=O)N1CCC[C@@H](Nc2cnc(C(N)=O)c(Nc3ccc(C4CCN(C5CCCC5)CC4)cc3)n2)[C@H]1C` [Example E-99, 5-((2R,3R)-1-acryloyl-2-methylpiperidin-3-ylamino)-3-(4-(1-cyclopentylpiperidin-4-yl)phenylamino)pyrazine-2-carboxamide], the pIC50 was at least 8.00 against TEC (E compounds, Table 17); at least 8.00 on BTK-WT (E compounds, Table 17); at least 8.00 on EGFR (E compounds, Table 17); 7.00 to 8.00 on LCK (E compounds, Table 17); at least 8.00 against ITK (E compounds, Table 17).

As for `C=CC(=O)N1CC[C@@H](N(C)c2cnc(C(N)=O)c(Nc3ccc(C4CCN(C)CC4)cc3)n2)C1` [Example E-115, (R)-5-((1-acryloylpyrrolidin-3-yl)(methyl)amino)-3-(4-(1-methylpiperidin-4-yl)phenylamino)pyrazine-2-carboxamide], the pIC50 on TEC (E compounds, Table 17) was at least 8.00; on BTK-WT (E compounds, Table 17), at least 8.00; against EGFR (E compounds, Table 17), at least 8.00; on ITK (E compounds, Table 17), at least 8.00.

As for `C=CC(=O)N1CCC[C@@H](Nc2nnc(C(N)=O)c(Nc3ccc(-c4nccs4)cc3)n2)C1` [Example E-63, (R)-3-(1-acryloylpiperidin-3-ylamino)-5-(4-(thiazol-2-yl)phenylamino)-1,2,4-triazine-6-carboxamide], the pIC50 against TEC (E compounds, Table 17) was at least 8.00; on BTK-WT (E compounds, Table 17), at least 8.00; on EGFR (E compounds, Table 17) it was at least 8.00; on ITK (E compounds, Table 17), 7.00 to 8.00.

Take `C=CC(=O)N1CCC[C@@H](N(C)c2cnc(C(N)=O)c(Nc3cc(C)ns3)n2)C1` [Example E-124, (R)-5-((1-acryloylpiperidin-3-yl)(methyl)amino)-3-(3-methylisothiazol-5-ylamino)pyrazine-2-carboxamide]: the pIC50 against TEC (E compounds, Table 17) was at least 8.00; on BTK-WT (E compounds, Table 17), at least 8.00; against EGFR (E compounds, Table 17), 7.00 to 8.00; against ITK (E compounds, Table 17), at least 8.00.

For `C=CC(=O)N1CC[C@@H](N(C)c2cnc(C(N)=O)c(Nc3ccc(-c4ncccn4)cc3)n2)C1` [Example E-117, (R)-5-((1-acryloylpyrrolidin-3-yl)(methyl)amino)-3-(4-(pyrimidin-2-yl)phenylamino)pyrazine-2-carboxamide], the pIC50 is at least 8.00 against TEC (E compounds, Table 17); at least 8.00 on BTK-WT (E compounds, Table 17); 7.00 to 8.00 at EGFR (E compounds, Table 17); at least 8.00 at ITK (E compounds, Table 17).

As for `C=CC(=O)N1CCC[C@@H](Nc2nnc(C(N)=O)c(Nc3ccc(S(C)(=O)=O)cc3)n2)C1` [Example E-47, (R)-3-(1-acryloylpiperidin-3-ylamino)-5-(4-(methylsulfonyl)phenyl-amino)-1,2,4-triazine-6-carboxamide], the pIC50 against TEC (E compounds, Table 17) was at least 8.00; on BTK-WT (E compounds, Table 17), at least 8.00; against EGFR (E compounds, Table 17) it was at least 8.00; at ITK (E compounds, Table 17) it was at least 8.00.

For the molecule `C=CC(=O)N1CCC[C@@H](Nc2nnc(C(N)=O)c(Nc3cccc(-c4ncccn4)c3)n2)C1` [Example E-55, (R)-3-(1-acryloylpiperidin-3-ylamino)-5-(3-(pyrimidin-2-yl)phenylamino)-1,2,4-triazine-6-carboxamide], the pIC50 on TEC (E compounds, Table 17) is at least 8.00; at BTK-WT (E compounds, Table 17) it was at least 8.00; at EGFR (E compounds, Table 17), 7.00 to 8.00; on ITK (E compounds, Table 17), 7.00 to 8.00.

Consider `C=CC(=O)N1CCC[C@@H](Nc2nnc(C(N)=O)c(Nc3ccc(C4(C#N)CCCC4)cc3)n2)C1` [Example E-46, (R)-3-(1-acryloylpiperidin-3-ylamino)-5-(4-(1-cyanocyclopentyl)phenylamino)-1,2,4-triazine-6-carboxamide], for which the negative-log IC50 (pIC50) is at least 8.00 against TEC (E compounds, Table 17); at least 8.00 at BTK-WT (E compounds, Table 17); at least 8.00 on EGFR (E compounds, Table 17); at least 8.00 against ITK (E compounds, Table 17).

Take `C=CC(=O)N1CCC[C@@H](Nc2nnc(C(N)=O)c(Nc3cccc(-n4nccn4)c3)n2)C1` [Example E-61, (R)-5-(3-(2H-1,2,3-triazol-2-yl)phenylamino)-3-(1-acryloylpiperidin-3-ylamino)-1,2,4-triazine-6-carboxamide]: the pIC50 is at least 8.00 on TEC (E compounds, Table 17); at least 8.00 on BTK-WT (E compounds, Table 17); 7.00 to 8.00 at EGFR (E compounds, Table 17); 6.00 to 7.00 on LCK (E compounds, Table 17); 7.00 to 8.00 on ITK (E compounds, Table 17).

With `C=CC(=O)N1CC[C@@H](N(C)c2cnc(C(N)=O)c(Nc3cnn(C)c3)n2)C1` [Example E-119, (R)-5-((1-acryloylpyrrolidin-3-yl)(methyl)amino)-3-(1-methyl-1H-pyrazol-4-ylamino)pyrazine-2-carboxamide], the negative-log IC50 (pIC50) against TEC (E compounds, Table 17) was at least 8.00; at BTK-WT (E compounds, Table 17), at least 8.00; against EGFR (E compounds, Table 17), 7.00 to 8.00; against ITK (E compounds, Table 17) it was at least 8.00.

For the molecule `C=CC(=O)N1CCC[C@@H](Nc2nnc(C(N)=O)c(Nc3ccc(N4CCOCC4=O)cc3)n2)C1` [Example E-62, (R)-3-(1-acryloylpiperidin-3-ylamino)-5-(4-(3-oxomorpholino)phenyl-amino)-1,2,4-triazine-6-carboxamide], the pIC50 against TEC (E compounds, Table 17) is at least 8.00; on BTK-WT (E compounds, Table 17), at least 8.00; against EGFR (E compounds, Table 17), 7.00 to 8.00; on ITK (E compounds, Table 17) it was at least 8.00.
